# Measured values published in patent publication US20250108038A1 (priority 2023, published 2025).
# Several values for one entry are separate records, joined by “and”; a condition that tells them apart may be missing. Identical values can stand only once.
# Assay: Pharmacokinetics after single oral administration to beagle dogs;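 as to AUC0-inf of Compound A (as titled): compound A is measured in plasma as a metabolite of the dosed analog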;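 as to AUC0-last of Compound A (as titled): compound A is measured in plasma as a metabolite of the dosed analog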;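 as to Tlast of Compound A (as titled): compound A is measured in plasma as a metabolite of the dosed analog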;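 as to Tmax of Compound A (as titled): compound A is measured in plasma as a metabolite of the dosed analog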
# Assay type: in vivo
# Settings: for Cmax of the analog (Compound I-17/I-19) / T1/2 of the analog (Compound I-17/I-19) / Tmax of the analog (Compound I-17/I-19): oral 10 mg/kg; for plasma concentration of Compound I-17/I-19 (as titled): single PO 80 mg/kg (as titled)
# Experimental: The concentrations of the analytes in the plasma were quantified by liquid chromatography tandem mass spectrometry (LC-MS/MS).
# The bioanalytical assay provided a lower limit of quantification (LLOQ) of 1.0 ng/mL and an upper limit of quantification (ULOQ) of 3000 ng/mL for all the analytes. The data of plasma concentration vs. time were analyzed using Phoenix WinNonlin 8.3 to determine the PK properties of the analytes.
# The test articles were administered orally by gavage. The nominal dose volume was 5 mL/kg for both analogs.
# The observation included appearance, behavior, morbidity and mortality.
# Approximately 0.5 mL blood was collected at each scheduled time point from the peripheral veins.
# The plasma samples were placed in microcentrifuge tubes and stored at −70+10° C. until analysis.
# [1] = after single PO 10 mg/kg of Compound I-17/I-19, female individual
# [2] = after single PO 10 mg/kg of Compound I-17/I-19, female individual, 10 mg/kg
# [3] = after single PO 10 mg/kg of Compound I-17/I-19, female mean
# [4] = after single PO 10 mg/kg of Compound I-17/I-19, male individual
# [5] = after single PO 10 mg/kg of Compound I-17/I-19, male individual, 10 mg/kg
# [6] = after single PO 10 mg/kg of Compound I-17/I-19, male mean
# [7] = after single PO 80 mg/kg (so in the source) of Compound I-17/I-19, female individual, 80 mg/kg
# [8] = after single PO 80 mg/kg (so in the source) of Compound I-17/I-19, female mean
# [9] = after single PO 80 mg/kg (so in the source) of Compound I-17/I-19, male individual
# [10] = after single PO 80 mg/kg (so in the source) of Compound I-17/I-19, male individual, 80 mg/kg
# [11] = after single PO 80 mg/kg (so in the source) of Compound I-17/I-19, male mean
compound,measurement,setting,value
Clc1ccc(C2(OCC3OCCO3)c3ccccc3C3=NCCN32)cc1 (stereo not shown) [Compound I-19],Tlast of Compound A (as titled),[1],8.00 h
same,Tmax of Compound A (as titled),[1],1.00 h
same,AUC0-inf of Compound A (as titled),[2],786 ng·h/mL and 1047 ng·h/mL
same,AUC0-last of Compound A (as titled),[2],739 ng·h/mL and 932 ng·h/mL
same,Cmax of Compound A (as titled),[2],258 ng/mL and 262 ng/mL
same,MRT0-inf of Compound A (as titled),[2],2.82 h and 3.68 h
same,MRT0-last of Compound A (as titled),[2],2.29 h and 2.65 h
same,T1/2 of Compound A (as titled),[2],2.23 h and 2.77 h
same,AUC0-inf of Compound A (as titled),[3],916 ng·h/mL
same,AUC0-last of Compound A (as titled),[3],836 ng·h/mL
same,Cmax of Compound A (as titled),[3],260 ng/mL
same,MRT0-inf of Compound A (as titled),[3],3.25 h
same,MRT0-last of Compound A (as titled),[3],2.47 h
same,T1/2 of Compound A (as titled),[3],2.50 h
same,Tlast of Compound A (as titled),[3],8.00 h
same,Tmax of Compound A (as titled),[3],1.00 h
same,Tlast of Compound A (as titled),[4],8.00 h
same,Tmax of Compound A (as titled),[4],1.00 h
same,AUC0-inf of Compound A (as titled),[5],843 ng·h/mL and 756 ng·h/mL
same,AUC0-last of Compound A (as titled),[5],801 ng·h/mL and 737 ng·h/mL
same,Cmax of Compound A (as titled),[5],312 ng/mL and 281 ng/mL
same,MRT0-inf of Compound A (as titled),[5],2.72 h and 2.50 h
same,MRT0-last of Compound A (as titled),[5],2.29 h and 2.31 h
same,T1/2 of Compound A (as titled),[5],1.93 h and 1.39 h
same,AUC0-inf of Compound A (as titled),[6],799 ng·h/mL
same,AUC0-last of Compound A (as titled),[6],769 ng·h/mL
same,Cmax of Compound A (as titled),[6],297 ng/mL
same,MRT0-inf of Compound A (as titled),[6],2.61 h
same,MRT0-last of Compound A (as titled),[6],2.30 h
same,T1/2 of Compound A (as titled),[6],1.66 h
same,Tlast of Compound A (as titled),[6],8.00 h
same,Tmax of Compound A (as titled),[6],1.00 h
same,Tlast of Compound A,"after single PO 80 mg/kg (so in the source) of Compound I-17/I-19, female individual",24.0 h
same,AUC0-inf of Compound A,[7],982 ng·h/mL and 1387 ng·h/mL
same,AUC0-last of Compound A,[7],919 ng·h/mL and 1108 ng·h/mL
same,Cmax of Compound A,[7],160 ng/mL and 113 ng/mL
same,MRT0-inf of Compound A,[7],7.98 h and 14.9 h
same,MRT0-last of Compound A,[7],6.23 h and 8.76 h
same,T1/2 of Compound A,[7],6.54 h and 10.7 h
same,Tmax of Compound A,[7],0.500 h and 2.00 h
same,AUC0-inf of Compound A,[8],1185 ng·h/mL
same,AUC0-last of Compound A,[8],1013 ng·h/mL
same,Cmax of Compound A,[8],137 ng/mL
same,MRT0-inf of Compound A,[8],11.5 h
same,MRT0-last of Compound A,[8],7.49 h
same,T1/2 of Compound A,[8],8.61 h
same,Tlast of Compound A,[8],24.0 h
same,Tmax of Compound A,[8],1.25 h
same,Tlast of Compound A,[9],24.0 h
same,Tmax of Compound A,[9],1.00 h
same,AUC0-inf of Compound A,[10],1022 ng·h/mL and 661 ng·h/mL
same,AUC0-last of Compound A,[10],958 ng·h/mL and 622 ng·h/mL
same,Cmax of Compound A,[10],136 ng/mL and 111 ng/mL
same,MRT0-inf of Compound A,[10],8.63 h and 7.66 h
same,MRT0-last of Compound A,[10],7.01 h and 6.08 h
same,T1/2 of Compound A,[10],6.05 h and 6.28 h
same,AUC0-inf of Compound A,[11],841 ng·h/mL
same,AUC0-last of Compound A,[11],790 ng·h/mL
same,Cmax of Compound A,[11],123 ng/mL
same,MRT0-inf of Compound A,[11],8.14 h
same,MRT0-last of Compound A,[11],6.54 h
same,T1/2 of Compound A,[11],6.16 h
same,Tlast of Compound A,[11],24.0 h
same,Tmax of Compound A,[11],1.00 h
same,"Cmax and AUC0-last of Compound A, compared to Compound I-17","male and female dogs, PO",about 2.5 ×
same,Cmax of the analog (Compound I-17/I-19),female dogs,260 ng/mL
same,T1/2 of the analog (Compound I-17/I-19),female dogs,2.50 hours
same,Tmax of the analog (Compound I-17/I-19),female dogs,1 hour
same,Cmax of the analog (Compound I-17/I-19),male dogs,297 ng/mL
same,T1/2 of the analog (Compound I-17/I-19),male dogs,1.66 hours
same,Tmax of the analog (Compound I-17/I-19),male dogs,1 hour
same,plasma concentration of Compound I-17/I-19,"single PO 10 mg/kg, 0.500 h, female individual, 10 mg/kg",257 ng/mL and 246 ng/mL
same,plasma concentration of Compound I-17/I-19,"single PO 10 mg/kg, 0.500 h, female mean",252 ng/mL
same,plasma concentration of Compound I-17/I-19,"single PO 10 mg/kg, 0.500 h, male individual, 10 mg/kg",259 ng/mL and 195 ng/mL
same,plasma concentration of Compound I-17/I-19,"single PO 10 mg/kg, 0.500 h, male mean",227 ng/mL
same,plasma concentration of Compound I-17/I-19,"single PO 10 mg/kg, 1.00 h, female individual, 10 mg/kg",258 ng/mL and 262 ng/mL
same,plasma concentration of Compound I-17/I-19,"single PO 10 mg/kg, 1.00 h, female mean",260 ng/mL
same,plasma concentration of Compound I-17/I-19,"single PO 10 mg/kg, 1.00 h, male individual, 10 mg/kg",312 ng/mL and 281 ng/mL
same,plasma concentration of Compound I-17/I-19,"single PO 10 mg/kg, 1.00 h, male mean",297 ng/mL
same,plasma concentration of Compound I-17/I-19,"single PO 10 mg/kg, 2.00 h, female individual, 10 mg/kg",186 ng/mL and 240 ng/mL
same,plasma concentration of Compound I-17/I-19,"single PO 10 mg/kg, 2.00 h, female mean",213 ng/mL
same,plasma concentration of Compound I-17/I-19,"single PO 10 mg/kg, 2.00 h, male individual",181 ng/mL
same,plasma concentration of Compound I-17/I-19,"single PO 10 mg/kg, 2.00 h, male mean",181 ng/mL
same,plasma concentration of Compound I-17/I-19,"single PO 10 mg/kg, 4.00 h, female individual, 10 mg/kg",50.7 ng/mL and 78.2 ng/mL
same,plasma concentration of Compound I-17/I-19,"single PO 10 mg/kg, 4.00 h, female mean",64.4 ng/mL
same,plasma concentration of Compound I-17/I-19,"single PO 10 mg/kg, 4.00 h, male individual, 10 mg/kg",64.2 ng/mL and 67.7 ng/mL
same,plasma concentration of Compound I-17/I-19,"single PO 10 mg/kg, 4.00 h, male mean",66.0 ng/mL
same,plasma concentration of Compound I-17/I-19,"single PO 10 mg/kg, 6.00 h, female individual, 10 mg/kg",27.8 ng/mL and 50.5 ng/mL
same,plasma concentration of Compound I-17/I-19,"single PO 10 mg/kg, 6.00 h, female mean",39.1 ng/mL
same,plasma concentration of Compound I-17/I-19,"single PO 10 mg/kg, 6.00 h, male individual, 10 mg/kg",27.3 ng/mL and 22.7 ng/mL
same,plasma concentration of Compound I-17/I-19,"single PO 10 mg/kg, 6.00 h, male mean",25.0 ng/mL
same,plasma concentration of Compound I-17/I-19,"single PO 10 mg/kg, 8.00 h, female individual, 10 mg/kg",14.6 ng/mL and 28.7 ng/mL
same,plasma concentration of Compound I-17/I-19,"single PO 10 mg/kg, 8.00 h, female mean",21.7 ng/mL
same,plasma concentration of Compound I-17/I-19,"single PO 10 mg/kg, 8.00 h, male individual, 10 mg/kg",15.2 ng/mL and 9.16 ng/mL
same,plasma concentration of Compound I-17/I-19,"single PO 10 mg/kg, 8.00 h, male mean",12.2 ng/mL
same,plasma concentration of Compound I-17/I-19,"single PO 10 mg/kg, 24.0 h, female individual",BQL
same,plasma concentration of Compound I-17/I-19,"single PO 10 mg/kg, 24.0 h, male individual",BQL
same,Clinical observation,"single PO 10 mg/kg, beagle dogs",diarrhea at 24 hours post-dose
same,plasma concentration of Compound I-17/I-19 (as titled),"0.500 h, female individual, 80 mg/kg",160 ng/mL and 83.0 ng/mL
same,plasma concentration of Compound I-17/I-19 (as titled),"0.500 h, female mean",121 ng/mL
same,plasma concentration of Compound I-17/I-19 (as titled),"0.500 h, male individual, 80 mg/kg",102 ng/mL and 91.6 ng/mL
same,plasma concentration of Compound I-17/I-19 (as titled),"0.500 h, male mean",96.8 ng/mL
same,plasma concentration of Compound I-17/I-19 (as titled),"2.00 h, female individual",113 ng/mL
same,plasma concentration of Compound I-17/I-19 (as titled),"2.00 h, female mean",113 ng/mL
same,plasma concentration of Compound I-17/I-19 (as titled),"2.00 h, male individual, 80 mg/kg",94.9 ng/mL and 78.9 ng/mL
same,plasma concentration of Compound I-17/I-19 (as titled),"2.00 h, male mean",86.9 ng/mL
same,plasma concentration of Compound I-17/I-19 (as titled),"4.00 h, female individual, 80 mg/kg",87.3 ng/mL and 76.1 ng/mL
same,plasma concentration of Compound I-17/I-19 (as titled),"4.00 h, female mean",81.7 ng/mL
same,plasma concentration of Compound I-17/I-19 (as titled),"4.00 h, male individual, 80 mg/kg",87.4 ng/mL and 60.3 ng/mL
same,plasma concentration of Compound I-17/I-19 (as titled),"4.00 h, male mean",73.8 ng/mL
same,plasma concentration of Compound I-17/I-19 (as titled),"6.00 h, female individual, 80 mg/kg",49.1 ng/mL and 57.9 ng/mL
same,plasma concentration of Compound I-17/I-19 (as titled),"6.00 h, female mean",53.5 ng/mL
same,plasma concentration of Compound I-17/I-19 (as titled),"6.00 h, male individual, 80 mg/kg",60.4 ng/mL and 35.4 ng/mL
same,plasma concentration of Compound I-17/I-19 (as titled),"6.00 h, male mean",47.9 ng/mL
same,plasma concentration of Compound I-17/I-19 (as titled),"8.00 h, female individual, 80 mg/kg",32.5 ng/mL and 52.0 ng/mL
same,plasma concentration of Compound I-17/I-19 (as titled),"8.00 h, female mean",42.3 ng/mL
same,plasma concentration of Compound I-17/I-19 (as titled),"8.00 h, male individual, 80 mg/kg",43.8 ng/mL and 20.9 ng/mL
same,plasma concentration of Compound I-17/I-19 (as titled),"8.00 h, male mean",32.4 ng/mL
same,plasma concentration of Compound I-17/I-19 (as titled),"24.0 h, female individual, 80 mg/kg",6.70 ng/mL and 18.2 ng/mL
same,plasma concentration of Compound I-17/I-19 (as titled),"24.0 h, female mean",12.4 ng/mL
same,plasma concentration of Compound I-17/I-19 (as titled),"24.0 h, male individual, 80 mg/kg",7.39 ng/mL and 4.28 ng/mL
same,plasma concentration of Compound I-17/I-19 (as titled),"24.0 h, male mean",5.83 ng/mL
same,plasma concentration of Compound I-17/I-19 (as titled),"[…] h, female mean",116 ng/mL
same,plasma concentration of Compound I-17/I-19 (as titled),"[…] h, male mean",123 ng/mL
